From patent publication US9181172B2, “Rhein conjugates, preparation method thereof and their uses in producing medicines for treating diabetic nephrosis, intestinal adhesion and osteoarthritis” (priority 2005, dated 2015)

Key:
Format in all cases: in vivo
mice [1] = test: Intestinal propulsion in mice; details: intravenous injection
Protocol: Fifty mice, male, weighting from 18 to 22 g, were randomly divided into five groups, namely, model control group, domperidone group, rhein sodium group, rhein glucosamine large dose group and low dose group.
Each group has 10 mice respectively. The mice were fasted, but water was not prohibited, and then administered with medicines by intravenous injection. After that, tests were carried on immediately according to the methods in the literature[Xu Shuyun, Methodology in Pharmacological Experiment (the 3rd version): 1313]. The intestinal propulsive rates were calculated, and t test was used for the intergroup comparison.

[2] = test system: rabbits' ear marginal veins; test: Safety of hydro-acupuncture injection: irritation of rabbits' ear marginal vein; details: slowly into the vein every two days, three times
Excerpt: In rabbits' ear marginal vein aseptic operation, rhein sodium salt, rhein arginine conjugates and 0.9% sodium chloride injection liquid were slowly filled into the veins respectively every two days for three consecutive times.

mice [3] = test: Capillary permeability of mice
Protocol: Each group has 12 mice, administration: 0.20 ml/10 g. Mice in the model control group were administrated with isovolumic physiologic saline.

rats [4] = test: Formation of cotton ball granuloma in rats (Example 59 Test 2)
Protocol: Rats were randomly divided into five groups (model control group, indomethacin group, rhein glucosamine large dose group and low dose group and rhein sodium group). Each group included 10 rats, and built models according to the method in the literature [Xu Shuyun, Methodology in Pharmacological Experiment (the 3rd version): 918]. The rats were administered by medicines from the day when starting the operation. […] The rats were killed in two weeks, and tests were performed according to the methods in the literature, the net weight of granulation was calculated, and t test was used for the intergroup comparison.

rats [5] = test: Intestinal adhesion in rats; details: for Rating of adhesion degree 0: number of 12 rats with completely no adhesion; for Rating of adhesion degree 0 / Rating of adhesion degree III / Rating of adhesion degree I / Rating of adhesion degree IV / Rating of adhesion degree II: 7th day; for Rating of adhesion degree III: number of 12 rats with more than two adhering zones; for Rating of adhesion degree I: number of 12 rats with one adhering zone; for Rating of adhesion degree IV: number of 12 rats with organs adhering to abdominal wall directly; for Rating of adhesion degree II: number of 12 rats with two adhering zones
Protocol: Rats were fasted for 12 h and models were built according to the methods in the literature [Xu Shuyun, Methodology in Pharmacological Experiment (the 3rd version): 1335]. The rats were randomly divided into five groups, namely, model control group, dexamethasone group, rhein sodium group, rhein glucosamine large dose group and low dose group. Each group included 12 rats. […] The rats of the model group were administered with the same volume of NS, while the rats of the positive control group were administered with dexamethasone, administered once every two days, dose: 10 mg/kg. The administration volume was the same as the treatment group. The rats were killed on the 7th day and carried on laparotomy. Adhesion degree was classified and scored respectively. The classification and score of the observed index-adhesion degree can refer to the five-grade classification method prepared by Nair, and determine the classification standard, see Schedule 13. Intestinal adhesion classification adopts Ridit analysis. The test results are as follows (Table 14): […]

rats [6] = test: Carrageenan-induced acute pleurisy exudation and leukoplania in rats; details: intraperitoneal 10 mg/kg, four hours after carrageenan
Protocol: Forty male rats of 200±20 g weight were selected and divided into five groups, namely, model control group, indomethacin group, rhein sodium group, rhein glucosamine large dose group and small dose group. Eight rats for each group. The rats were administered with medicines by intraperitoneal administration, one hour later, the rats were induced with acute pleurisy by carrageenan according to the method in the literature [Xu Shuyun, Methodology in Pharmacological Experiment (the 3rd version): 916]. Four hours later, the rats were killed and the volume of pleural effusion and total white cell count were measured.

rats [7] = test: Formation of granuloma in rats (arthritis example, test 4); details: 10 mg/kg intramuscular, two weeks
Protocol: Rats were randomly divided into five groups (model control group, indomethacin group, rhein glucosamine large dose group and small dose group and rhein sodium group). Each group has 10 […]. According to the method in the literature [Xu Shuyun, Methodology in Pharmacological Experiment (the 3rd version): 918], the models were built, and the rats were administered with medicines since the day when starting operations. […] Two weeks later, the rats were killed and test was carried on according to the method in the literature. The net weight of granulation was calculated, and t test was used for the intergroup comparison.

mice [8] = test: Xylene-induced swelling of auricle in mice; details: ig 200 mg/kg, 3 days
Protocol: Fifty male Kunming mice were selected, weighing 18-22 g each, and randomly divided into five groups, namely, model control group, aspirin group, rhein sodium group, rhein glucosamine large dose group and low dose groups. Each group had 10 mice respectively. The mice were administered with medicines by intragastric administration every day, for 0.2 ml/10 g body weight. The mice of the model control group were administered with equal volume of physiological saline, once every day, continuously administration for 3 days. After 60 minutes of the final administration, carried on test according to the method in the literature [Xu Shuyun, Methodology in Pharmacological Experiment (the 3rd version): 911]. The sweeling degree of auricle was calculated and statistical analysis was conducted.

mice [9] = test: Acetic acid-induced writhing response in mice; details: ig 200 mg/kg, 12 days
Protocol: Fifty Kunming mice, half male and half female, weighing 18-22 g each, were selected and randomly divided into five groups, namely, model control group, aspirin group, rhein sodium group, rhein glucosamine large dose group and small dose group, 10 mice for each group. The mice were administered with medicine by intragastric administration every day, 0.2 ml/10 g body weight, once every day, and administered for 12 days in succession. After the final administration of medicines, 30 minutes later, test was carried on according to the methods in the literature [Xu Shuyun, Methodology in Pharmacological Experiment (the 1st version): 882]. The inhibiting rate for writhing response was calculated.

Compound: Rhein Arginine Conjugate
- Propulsive rate (mice [1]; dosage 12 mg/kg): 53.81 ± 8.9 %
- Propulsive rate (mice [1]; dosage 24 mg/kg): 66.47 ± 9.7 %
- biopsy of rabbits' ear marginal vein [2]: normal without endothelial injuries, thrombosis and other pharmacological change
- irritation on rabbits' ear marginal veins ([2]; vs 0.9% sodium chloride): no irritation
- absorbance value (mice [3]; dosage 12 mg/kg): 0.476 ± 0.096
- absorbance value (mice [3]; dosage 24 mg/kg): 0.455 ± 0.105
- inhibition of the formation of cotton ball granuloma compared with the model group (rats [4]; ig, large dose and low dose groups, p<0.01): significant effect on the inhibition
- abdominal adhesion ratings compared with the control group (rats [5]; large dose and low dose groups, p<0.05): statistical significances
- Rating of adhesion degree 0 (rats [5]; 6 mg/kg once a day): 1
- Rating of adhesion degree 0 (rats [5]; 12 mg/kg once a day): 3
- Rating of adhesion degree III (rats [5]; 6 mg/kg once a day): 3
- Rating of adhesion degree III (rats [5]; 12 mg/kg once a day): 2
- Rating of adhesion degree I (rats [5]; 6 mg/kg once a day): 4
- Rating of adhesion degree I (rats [5]; 12 mg/kg once a day): 5
- Rating of adhesion degree IV (rats [5]; 6 mg/kg once a day): 1
- Rating of adhesion degree IV (rats [5]; 12 mg/kg once a day): 0
- Rating of adhesion degree II (rats [5]; 6 mg/kg once a day): 3
- Rating of adhesion degree II (rats [5]; 12 mg/kg once a day): 2

Compound: COc1ccc2c(c1)c(CC(=O)O)c(C)n2C(=O)c1ccc(Cl)cc1 [indomethacin]
- Volume of exudation fluid (rats [6]): 0.26 ± 0.11
- WBC (rats [6]): 3.01 ± 1.59 ×109/L
- net weight of granulation (rats [4]; 10 mg/kg intramuscular, two weeks): 12.21 ± 2.43 mg
- Net weight of granulation (rats [7]): 12.17 ± 2.49 mg

Compound: CC(=O)Oc1ccccc1C(=O)O [aspirin]
- inhibition rate (mice [8]): 48.9%
- swelling degree of auricle (mice [8]): 9.1 ± 1.8 mg
- Inhibiting rate (mice [9]): 65.6%
- Times of writhing (mice [9]): 11.1 ± 6.3 per/20 min
